According to patent US20050233361A1, “PPARdelta assay” (priority 2004, published 2005):

Key:
ANGPTL4 gene expression [1] = assay: ANGPTL4 gene expression in C2C12 cells by Affymetrix micro-arrays; assay type: cell-based; settings: C2C12 mouse muscle cells, 20 hours, vs control = 1.00
Description: Cell culture: C2C12 cells (ATCC: CRL1772)
Cells were cultured in DMEM (5 mM glucose) supplemented with 10% heat-inactivated fetal calf serum (FCS). Complete medium was filtered through 0.2 μm pores before use. Differentiation was performed in 6 well dishes by serum depleting the medium (DMEM High Glucose, 2% FCS) when cells reach confluency. Cell cultures were then incubated for 5 days at 37° C. in a 90%-humidified and 95%-air-5%-CO2 sterile atmosphere to allow differentiation.
PPAR Ligands were dissolved in 100% DMSO and added to medium to adjust 0.1% (v/v) DMSO final concentration and cells were incubated with ligands for 20 hours under normal growth conditions. Three replicates were done for each condition.
RNA extraction procedure has been performed with Qiagen QIAschredder and RNeasy kits.
Approximately 1*106 pelleted cells per sample were resuspended in 350 μl guanidine thiocyanate containing RLT. Samples were loaded on a QIAshredder-column and centrifuged at full speed for 2 minutes to homogenize the lysates. After adding 350 μl ethanol to the flow-through for better binding conditions, samples were applied to RNeasy spin. For the first wash step 350 μl RW1 buffer were pipeted into the column. Then 10 μL DNase solution gently mixed with 70 μl RDD buffer were applied onto the column and incubated for 15 minutes at room temperature to remove genomic DNA. […]

ANGPTL4 gene expression [2] = assay: ANGPTL4 gene expression in C2C12 cells by qPCR; assay type: cell-based; settings: C2C12 mouse muscle cells, S12 reference, vs control = 1
Description: The culturing of the C2C12 mouse muscle cells, RNA extraction, cDNA synthesis and purifications were performed as described in Example 1.
RT-PCR was performed with the Quantitech SYBR Green kit from Qiagen according to the manufacturer's manual. Each component were added to 96 well plate: 25 μl master mix, 0.16 μl of each primer (100 μM stock solution), 22.7 μl H2O and 2 μl cDNA.
The program consists of three different steps: initial denaturation of template and heat-activation of the Taq DNA polymerase (95° C., 15 min), cycling (95° C. denaturation, 60° C. primer-template annealing, 72° C. elongation, fluorescence aquisition), and final melting (melting curve 55 to 95° C., measurements in 0.5° C. steps).
The relative quantification is based on the relative expression of the target gene versus a reference gene. […] The cycle number at which threshold fluorescence is reached, is called ct value. […] The relative ct value of a target gene compared to the ct value of an internal reference in the control or untreated sample is expressed as Δct.control=ctreference of control−cttarget of control and in a treated, unknown sample as Δct.sample=ctreference of sample−cttarget of sample.
As internal reference for quantitative studies the ribosomal protein S12 gene expression was used. […] Setting of fluorescence threshold is determined by the light cycler software. The obtained ct values (duplicates for one sample, two samples per condition) were exported into Microsoft Excel and analyzed as described above.

For `CC(C)(Oc1ccc(C(=O)c2ccc(Cl)cc2)cc1)C(=O)O` [A, 2-[4-(4-Chlorobenzoyl)-phenoxy]-2-methylpropanoic acid], the “ANGPTL4 gene expression fold changes” value (ANGPTL4 gene expression [1]; 300 μM) was 1.99 fold and the “ANGPTL4 gene expression fold changes” value (ANGPTL4 gene expression [2]; 300 μM) was 2.61 fold.

With `Cc1cc(N(C)Cc2sc(-c3ccc(C(F)(F)F)cc3)nc2C)ccc1OCC(=O)O` [D, (2-Methyl-4-{Methyl-[4-methyl-2-(4-trifluoromethyl-phenyl)-thiazol-5-ylmethyl]-amino}-phenoxy)-acetic acid] the “ANGPTL4 gene expression fold changes” value (ANGPTL4 gene expression [2]; 500 nM) was 13.51 fold.

In the case of `Cc1nc(-c2ccc(C(F)(F)F)cc2)sc1C(Sc1ccc(OCC(=O)O)c2ccccc12)C1CCCC1` (racemic) [C, [rac]-(4-{Cyclopentyl-[4-methyl-2-(4-trifluoromethyl-penyl)-thiazol-5-yl]-methylsulfanyl}-naphtalen-1-yloxy}-acetic], the “ANGPTL4 gene expression fold changes” value (ANGPTL4 gene expression [1]; 500 nM) is reported as 8.87 fold and the “ANGPTL4 gene expression fold changes” value (ANGPTL4 gene expression [2]; 500 nM) is reported as 10.06 fold.
